From paper PMC5998061 (2018) come the findings set out here.

Experiment [1] has as its system MG RNA aptamer (malachite green RNA aptamer) (RNA, aptamer) GGAUCCCGACUGGCGAGAGCCAGGUAACGAAUGGAUCC
Kind of experiment: fluorescence titration, Hill fit n = 1. The settings on record: 100 mM KCl, 1 mM Mg-citrate; 10 mM HEPES, 0.2 M bicine, pH 8.5, room temperature; no vesicles.

Experiment [2] deals with MG aptamer construct for SHAPE (MG aptamer SHAPE construct) (RNA, aptamer) GGGCCUUCGGGCCAAGGAUCCCGACUGGCGAGAGCCAGGUAACGAAUGGAUCCUCGAUCCGGUUCGCCGGAUCCAAAUCGGGCUUCGGUCCGGUUC
Put plainly: SHAPE (NMIA), A30/A31 band ratio, Boltzmann fit. The settings on record: 100 mM KCl, 1 mM Mg-citrate; bicine pH 8.5; RNA outside empty myristoleic acid vesicles; MG incubation room temperature, NMIA 10 °C; apparent.

Structures are written as SMILES.

For the compound `CN(C)c1ccc(C(=C2C=CC(=[N+](C)C)C=C2)c2ccccc2)cc1`, in experiment [1], the KD is 2.5 ± 0.4 µM. Moreover, the midpoint in experiment [2] worked out at 6.1 ± 0.7 µM.

Broadly, the KD is the concentration at which binding is half-saturated. Read a low KD as a tighter complex.
